In patent US20260115180A1, “TREATMENT OF HYPOTHALAMIC OBESITY” (Saniona A/S, priority 2020, published 2026):

Assays:
[1] = in vivo; cited from earlier work
[2] = rat model of diet-induced obesity; cited from earlier work
[3] = cited from earlier work
[4] = Open-label extension of the Phase 2 study TM005 (additional 24 weeks, 48 weeks in total); type: in vivo, human
Method: All subjects: co-administration of 0.5 mg tesofensine/50 mg metoprolol ER daily for 24 weeks. One tablet for each product.
TM005 was a 24-week phase 2, double-blind, randomized, placebo-controlled, single-centre, safety and efficacy study followed by a 24-week open-label extension treatment period designed to evaluate overall safety and tolerability of Tesomet (co-administration of 0.5 mg tesofensine and 50 mg metoprolol) in patients with hypothalamic obesity (HO).
The primary endpoint of the study was overall safety and tolerability measured by all safety data collected during the study including recorded adverse events, laboratory data, blood pressure, and heart rate. The secondary efficacy endpoints included bodyweight, waist circumference, glycemic control and other measures. In the double-blind (DB) period of the study, patients received either Tesomet or matching placebo (2:1 randomization) for 24 weeks.
A total of 21 patients (13 Tesomet, 8 placebo) were randomized into the double blind (DB) period. All patients who completed the DB period of the study were provided the opportunity to receive Tesomet in an open-label extension (OLE) period of the study for an additional 24 weeks. All 18 patients who completed the DB period chose to participate in the OLE period and all of these patients completed the OLE period. […]

[5] = Phase 2 double-blind, randomized, placebo-controlled trial of Tesomet in hypothalamic obesity, Part 1 (24 weeks); type: in vivo, human; conditions: after 24 weeks of treatment (FIG. 3a)
Source text: The overall safety and tolerability of co-administration of tesofensine and metoprolol (Tesomet) in subjects with hypothalamic injury-induced obesity (HIO) was studied in a phase 2, double-blind, randomized, placebo-controlled, single-center safety and efficacy study followed by with an open-label extension, in total 48 weeks: • Part 1:24 Weeks double blinded treatment followed by • Part 2:24 weeks open lable extension.
The studied population were subjects suffering from obesity developed in relation to damage to the hypothalamus (HO), whether it is from an injuring trauma, bleeding, infaction, tumor, surgery or irradiation. […]
This randomized, double-blind, placebo-controlled Phase 2 trial evaluated Tesomet (tesofensine 0.5 mg+metoprolol 50 mg) administered daily in patients with HO, conducted at Rigshospitalet in Copenhagen, Denmark.
The primary endpoint of the study was overall safety and tolerability measured by all safety data collected during the study including recorded adverse events, laboratory data, blood pressure, and heart rate. […]
Continuous efficacy secondary endpoints were compared between treatment arms by means using Analysis of Co-variance (ANCOVA) including treatment as fixed factor and baseline value as covariate. Estimates and 95% confidence intervals of treatment differences were calculated

| SMILES | Half-life of beta blockers [1] [h] | Body weight in DIO rats [2] | Nocturnal energy expenditure ([3]; human subjects) | Weight loss in obese patients, corrected for placebo and diet effects ([3]; long-term treatment) | Share of patients with at least 10% weight loss ([4]; FIG. 3b) | Body weight after 48 weeks of Tesomet ([4]; baseline to Week 48, 24 weeks double-blind + 24 weeks open-label (FIG. 5)) | Share of patients with at least 5% weight loss [5] |
| --- | --- | --- | --- | --- | --- | --- | --- |
| COc1ccccc1OCCNCC(O)COc1cccc2[nH]c3ccccc3c12 (racemic) [carvedilol, (±)-[3-(9H-carbazol-4-yloxy)-2-hydroxypropyl][2-(2-methoxyphenoxy)ethyl]amine] | 7 to 10 |  |  |  |  |  |  |
| CCOC[C@@H]1[C@@H](c2ccc(Cl)c(Cl)c2)C[C@@H]2CC[C@H]1N2C [Tesofensine, (1R,2R,3S,5S)-3-(3,4-dichlorophenyl)-2-(ethoxymethyl)-8-methyl-8-azabicyclo[3.2.1]octane] |  | robust and sustained weight loss | increase nocturnal energy expenditure | about 10% | 33-41% | maintained | approximately ⅔ |
| COCCc1ccc(OCC(O)CNC(C)C)cc1 (centres unmarked) [metoprolol, 1-(Isopropylamino)-3-[4-(2-methoxyethyl)-phenoxy]-propan-2-ol] | 3 to 4 |  |  |  |  |  |  |
